From patent US11331299B2, “Medicinal use of serrulatane diterpenes” (The University of Sydney, priority 2016, dated 2022)

Columns and labels:
[1] = molecular target: HDAC3 (h) (Homo sapiens, UniProt O15379); test: Epigenetic enzyme assay, Histone deacetylase (HDACs); type: biochemical; settings: read-out: % Inhibition of Control Values
[2] = molecular target: T1, WHSC1(h) (NSD2(h)) (Homo sapiens, UniProt O96028); test: Epigenetic enzyme assay, Methyltransferases (MTs); type: biochemical; settings: 10 μM; read-out: % Inhibition of Control Values
T1 sequence (O96028 1-1365): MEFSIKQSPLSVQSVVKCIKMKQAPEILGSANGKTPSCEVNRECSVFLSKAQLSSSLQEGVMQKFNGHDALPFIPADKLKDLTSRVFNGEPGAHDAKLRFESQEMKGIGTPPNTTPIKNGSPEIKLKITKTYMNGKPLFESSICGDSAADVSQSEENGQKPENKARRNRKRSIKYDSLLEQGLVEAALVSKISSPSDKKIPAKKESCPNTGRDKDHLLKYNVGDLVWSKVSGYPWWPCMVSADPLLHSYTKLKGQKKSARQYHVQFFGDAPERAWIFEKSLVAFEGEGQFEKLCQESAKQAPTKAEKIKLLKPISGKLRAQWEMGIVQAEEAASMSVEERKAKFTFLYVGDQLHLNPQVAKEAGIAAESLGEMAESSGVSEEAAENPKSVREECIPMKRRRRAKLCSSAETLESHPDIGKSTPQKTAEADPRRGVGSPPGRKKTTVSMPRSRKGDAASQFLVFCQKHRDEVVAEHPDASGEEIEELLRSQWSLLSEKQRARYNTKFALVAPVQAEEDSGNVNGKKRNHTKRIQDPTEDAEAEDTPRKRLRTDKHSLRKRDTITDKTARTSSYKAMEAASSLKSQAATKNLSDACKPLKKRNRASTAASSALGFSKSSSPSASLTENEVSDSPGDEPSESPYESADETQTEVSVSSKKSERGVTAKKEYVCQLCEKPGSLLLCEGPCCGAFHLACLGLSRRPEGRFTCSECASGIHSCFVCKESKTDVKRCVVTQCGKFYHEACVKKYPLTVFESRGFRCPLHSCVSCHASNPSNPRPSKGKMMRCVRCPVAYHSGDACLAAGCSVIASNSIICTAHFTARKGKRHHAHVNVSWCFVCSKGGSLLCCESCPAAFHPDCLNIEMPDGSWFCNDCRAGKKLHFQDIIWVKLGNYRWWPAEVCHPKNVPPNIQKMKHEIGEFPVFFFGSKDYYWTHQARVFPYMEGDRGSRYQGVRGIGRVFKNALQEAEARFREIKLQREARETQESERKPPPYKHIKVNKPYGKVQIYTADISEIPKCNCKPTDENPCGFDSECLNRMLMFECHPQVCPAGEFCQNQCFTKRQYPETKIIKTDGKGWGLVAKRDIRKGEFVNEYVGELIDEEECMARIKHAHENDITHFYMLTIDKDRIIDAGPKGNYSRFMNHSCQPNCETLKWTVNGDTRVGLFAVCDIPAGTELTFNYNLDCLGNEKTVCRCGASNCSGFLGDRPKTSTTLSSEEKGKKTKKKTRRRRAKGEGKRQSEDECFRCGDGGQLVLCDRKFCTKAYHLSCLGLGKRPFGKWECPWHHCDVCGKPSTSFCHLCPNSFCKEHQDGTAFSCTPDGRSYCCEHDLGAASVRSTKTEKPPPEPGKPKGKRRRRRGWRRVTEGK

[3] = system: 43 cancer cell lines and one normal cell line; test: In vitro cell viability assay (intracellular ATP, 72 hour); type: cell-based; settings: 10 μM
[4] = molecular target: PKBgamma/AKT3(h) (substrate histone H3 full length) (Homo sapiens, UniProt Q9Y243); test: Epigenetic enzyme assay, Kinases; type: biochemical; settings: read-out: % Inhibition of Control Values
PKBgamma/AKT3(h) (substrate histone H3 full length), sequence (Q9Y243 whole entry): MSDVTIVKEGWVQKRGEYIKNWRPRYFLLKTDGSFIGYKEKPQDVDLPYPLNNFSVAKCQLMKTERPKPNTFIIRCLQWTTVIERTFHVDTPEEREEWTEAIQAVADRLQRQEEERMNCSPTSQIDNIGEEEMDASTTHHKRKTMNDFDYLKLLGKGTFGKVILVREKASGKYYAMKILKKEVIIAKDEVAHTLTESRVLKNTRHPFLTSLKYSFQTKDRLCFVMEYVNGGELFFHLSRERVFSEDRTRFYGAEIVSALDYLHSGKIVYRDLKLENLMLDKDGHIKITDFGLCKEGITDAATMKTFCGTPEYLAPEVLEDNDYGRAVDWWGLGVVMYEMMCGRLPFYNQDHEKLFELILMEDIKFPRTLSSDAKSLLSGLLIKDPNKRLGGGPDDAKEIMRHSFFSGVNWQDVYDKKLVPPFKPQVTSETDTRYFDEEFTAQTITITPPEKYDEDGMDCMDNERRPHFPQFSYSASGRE

[5] = molecular target: T2, JMJD2E (h) (Homo sapiens, UniProt B2RXH2); test: Epigenetic enzyme assay, Demethylases (KDMs); type: biochemical
T2 sequence (B2RXH2 1-506): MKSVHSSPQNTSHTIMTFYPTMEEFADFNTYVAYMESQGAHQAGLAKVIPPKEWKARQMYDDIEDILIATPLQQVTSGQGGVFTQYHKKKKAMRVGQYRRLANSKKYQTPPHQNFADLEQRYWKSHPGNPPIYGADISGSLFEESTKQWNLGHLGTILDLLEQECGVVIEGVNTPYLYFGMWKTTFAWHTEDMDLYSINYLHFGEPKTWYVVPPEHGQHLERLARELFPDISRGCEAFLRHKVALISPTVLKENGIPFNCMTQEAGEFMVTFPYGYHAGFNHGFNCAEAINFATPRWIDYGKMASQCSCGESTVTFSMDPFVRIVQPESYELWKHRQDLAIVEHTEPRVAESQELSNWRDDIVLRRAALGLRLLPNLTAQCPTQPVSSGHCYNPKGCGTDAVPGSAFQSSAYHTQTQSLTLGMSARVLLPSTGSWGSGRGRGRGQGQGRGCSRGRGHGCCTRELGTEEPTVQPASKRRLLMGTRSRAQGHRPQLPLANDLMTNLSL

[6] = molecular target: HDAC2 (h) (Homo sapiens, UniProt Q92769); test: Epigenetic enzyme assay, Histone deacetylase (HDACs); type: biochemical; settings: read-out: % Inhibition of Control Values
HDAC2 (h), sequence (Q92769 whole entry): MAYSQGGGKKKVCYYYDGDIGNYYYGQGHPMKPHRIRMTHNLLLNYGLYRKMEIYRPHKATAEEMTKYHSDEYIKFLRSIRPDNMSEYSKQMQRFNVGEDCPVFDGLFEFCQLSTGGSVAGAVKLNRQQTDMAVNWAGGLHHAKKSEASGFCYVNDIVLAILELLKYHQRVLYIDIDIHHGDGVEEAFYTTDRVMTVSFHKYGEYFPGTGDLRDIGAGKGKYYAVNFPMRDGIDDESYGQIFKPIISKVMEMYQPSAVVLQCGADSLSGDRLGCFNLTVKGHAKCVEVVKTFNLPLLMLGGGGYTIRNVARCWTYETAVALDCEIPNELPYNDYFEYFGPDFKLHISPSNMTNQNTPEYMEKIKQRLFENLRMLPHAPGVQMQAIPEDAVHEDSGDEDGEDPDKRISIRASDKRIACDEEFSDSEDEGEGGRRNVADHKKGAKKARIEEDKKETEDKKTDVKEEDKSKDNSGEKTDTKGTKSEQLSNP

[7] = molecular target: EZH1/EED/SUZ12 (h) (Homo sapiens, UniProt Q92800); test: Epigenetic enzyme assay, Methyltransferases (MTs); type: biochemical; settings: read-out: % Inhibition of Control Values
EZH1/EED/SUZ12 (h), sequence (Q92800 whole entry): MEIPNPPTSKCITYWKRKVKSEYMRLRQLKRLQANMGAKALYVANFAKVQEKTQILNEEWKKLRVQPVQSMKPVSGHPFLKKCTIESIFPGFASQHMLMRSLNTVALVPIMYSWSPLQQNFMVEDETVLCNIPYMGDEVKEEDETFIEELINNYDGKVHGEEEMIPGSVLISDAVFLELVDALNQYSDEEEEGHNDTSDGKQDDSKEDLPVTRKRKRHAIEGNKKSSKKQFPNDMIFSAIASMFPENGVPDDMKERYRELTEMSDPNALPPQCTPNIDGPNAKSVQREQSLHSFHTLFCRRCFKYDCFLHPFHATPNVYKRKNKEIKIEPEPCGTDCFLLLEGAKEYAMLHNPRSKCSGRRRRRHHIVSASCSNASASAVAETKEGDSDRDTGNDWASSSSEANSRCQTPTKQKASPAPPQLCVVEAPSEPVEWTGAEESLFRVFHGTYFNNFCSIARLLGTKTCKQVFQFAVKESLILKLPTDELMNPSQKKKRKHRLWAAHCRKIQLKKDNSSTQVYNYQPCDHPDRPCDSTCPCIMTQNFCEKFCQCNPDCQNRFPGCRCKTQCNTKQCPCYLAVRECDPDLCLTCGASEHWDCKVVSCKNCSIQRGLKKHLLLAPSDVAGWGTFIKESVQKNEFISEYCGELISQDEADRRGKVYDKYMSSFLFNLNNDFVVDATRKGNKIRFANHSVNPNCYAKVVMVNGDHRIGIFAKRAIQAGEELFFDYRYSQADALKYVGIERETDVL
EZH1/EED/SUZ12 (h), sequence (O75530 whole entry partner): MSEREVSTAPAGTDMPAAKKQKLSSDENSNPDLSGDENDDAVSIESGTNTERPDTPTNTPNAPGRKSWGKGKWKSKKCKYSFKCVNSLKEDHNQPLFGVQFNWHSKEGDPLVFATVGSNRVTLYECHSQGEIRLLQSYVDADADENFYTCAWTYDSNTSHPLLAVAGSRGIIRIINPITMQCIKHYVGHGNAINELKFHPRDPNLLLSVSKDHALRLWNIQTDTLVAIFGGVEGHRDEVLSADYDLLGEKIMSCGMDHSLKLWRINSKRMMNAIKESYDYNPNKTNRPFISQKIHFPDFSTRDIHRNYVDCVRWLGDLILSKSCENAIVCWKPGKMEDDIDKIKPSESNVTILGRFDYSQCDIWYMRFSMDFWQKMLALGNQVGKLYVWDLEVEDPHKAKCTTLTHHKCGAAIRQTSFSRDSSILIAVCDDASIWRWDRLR
EZH1/EED/SUZ12 (h), sequence (Q15022 whole entry partner): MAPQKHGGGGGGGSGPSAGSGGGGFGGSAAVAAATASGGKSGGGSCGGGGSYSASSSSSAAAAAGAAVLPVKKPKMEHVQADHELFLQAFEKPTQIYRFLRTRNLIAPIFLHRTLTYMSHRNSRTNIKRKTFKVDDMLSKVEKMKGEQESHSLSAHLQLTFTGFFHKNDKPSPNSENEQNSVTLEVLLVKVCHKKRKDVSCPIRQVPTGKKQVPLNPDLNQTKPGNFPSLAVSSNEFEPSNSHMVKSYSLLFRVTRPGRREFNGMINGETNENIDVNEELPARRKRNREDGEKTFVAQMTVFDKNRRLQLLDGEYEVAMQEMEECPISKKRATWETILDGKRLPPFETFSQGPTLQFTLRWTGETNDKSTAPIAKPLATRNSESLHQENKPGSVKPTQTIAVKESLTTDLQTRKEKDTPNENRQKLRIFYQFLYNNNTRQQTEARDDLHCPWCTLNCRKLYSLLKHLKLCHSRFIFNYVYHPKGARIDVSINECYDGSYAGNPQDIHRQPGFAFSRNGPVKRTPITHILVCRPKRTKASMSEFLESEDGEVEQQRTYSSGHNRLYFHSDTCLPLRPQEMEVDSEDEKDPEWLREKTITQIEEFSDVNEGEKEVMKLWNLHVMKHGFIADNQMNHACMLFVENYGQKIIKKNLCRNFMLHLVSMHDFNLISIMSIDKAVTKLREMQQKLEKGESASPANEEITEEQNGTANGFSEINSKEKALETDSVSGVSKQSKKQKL

HDAC3 (h), sequence (O15379 whole entry): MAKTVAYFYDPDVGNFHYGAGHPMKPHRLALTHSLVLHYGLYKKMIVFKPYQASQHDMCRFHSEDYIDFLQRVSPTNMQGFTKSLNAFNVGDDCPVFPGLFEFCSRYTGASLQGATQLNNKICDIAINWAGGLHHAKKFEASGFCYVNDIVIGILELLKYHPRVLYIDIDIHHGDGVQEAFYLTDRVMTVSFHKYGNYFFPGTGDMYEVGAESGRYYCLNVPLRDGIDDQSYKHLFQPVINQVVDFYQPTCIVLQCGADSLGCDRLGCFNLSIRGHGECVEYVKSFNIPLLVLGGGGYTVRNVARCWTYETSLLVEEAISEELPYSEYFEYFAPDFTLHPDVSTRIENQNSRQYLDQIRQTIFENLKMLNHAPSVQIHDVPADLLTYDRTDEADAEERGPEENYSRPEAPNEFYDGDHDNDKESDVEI
HDAC3 (h), sequence (Q9Y618 395-489 partner limits assumed): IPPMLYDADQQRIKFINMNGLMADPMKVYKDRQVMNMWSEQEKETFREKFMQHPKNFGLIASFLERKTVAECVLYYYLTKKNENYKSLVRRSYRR

Q: What does the source list for `CC(C)=CCC[C@H](CO)[C@@H]1CC[C@@H](C)c2c1cc(C)c(O)c2O` [Compound 1, 7,8,18-trihydroxyserrulat-14-ene]?
A: inhibition at 10 µM [1]: 1%; inhibition at 10 µM [2]: 3%; reduction in cell viability ([3]; 12 cancer cell lines with moderate reduction): −40 to −80%; reduction in cell viability ([3]; cancer cell lines with potent reduction): −80 to −100%; % Cell growth ([3]; 4T1 (Breast Cancer)): 52%; % Cell growth ([3]; A375 (Skin)): −5%; % Cell growth ([3]; A549/ATCC (Non-Small Cell Lung Cancer)): −92%; % Cell growth ([3]; A-431 (Skin)): −89%; % Cell growth ([3]; A-498 (Kidney Cancer)): −43%; % Cell growth ([3]; ACHN (Kidney Cancer)): −41%; % Cell growth ([3]; B16-F0 (Melanoma)): 7%; % Cell growth ([3]; BT474 (Breast Cancer)): −67%; % Cell growth ([3]; CT26.WT (Colon Cancer)): 2%; % Cell growth ([3]; DLD-1 (Colon Cancer)): −65%; % Cell growth ([3]; H33HJ-JA1 (Lymphoma)): −90%; % Cell growth ([3]; HC-4 (Liver Cancer)): −91%; % Cell growth ([3]; HCT-15 (Colon Cancer)): −62%; % Cell growth ([3]; HCT-116 (Colon Cancer)): −74%; % Cell growth ([3]; HT-29 (Colon Cancer)): −66%; % Cell growth ([3]; Hep3B (Liver Cancer)): −84%; % Cell growth ([3]; HepG2 (Liver Cancer)): −23%; % Cell growth ([3]; K-562 (Leukemia)): −55%; % Cell growth ([3]; KATO III (Stomach)): −91%; % Cell growth ([3]; LL/2 (Non-Small Cell Lung Cancer)): −62%; % Cell growth ([3]; LNCaP (Prostrate Cancer)): −86%; % Cell growth ([3]; MCF7 (Breast Cancer)): −71%; % Cell growth ([3]; MCF-7 AdrR (Breast Cancer)): −90%; % Cell growth ([3]; MDA-MB-231 (Breast Cancer)): −92%; % Cell growth ([3]; MDA-MB-468 (Breast Cancer)): −92%; % Cell growth ([3]; MES-SA (Uterus)): −88%; % Cell growth ([3]; MIA PaCa-2 (Pancreas)): 3%; % Cell growth ([3]; MOLT-4 (Leukemia)): −94%; % Cell growth ([3]; MV-411 (Leukemia)): −96%; % Cell growth ([3]; NCI-H460 (Non-Small Cell Lung Cancer)): −37%; % Cell growth ([3]; OVCAR-3 (Ovarian Cancer)): −93%; % Cell growth ([3]; PANC-1 (Pancreas)): 36%; % Cell growth ([3]; PC-3 (Prostrate Cancer)): 70%; % Cell growth ([3]; PC-6 (Non-Small Cell Lung Cancer)): −62%; % Cell growth ([3]; Ramos (Lymphoma)): −92%; % Cell growth ([3]; SK-MEL-5 (Melanoma)): −96%; % Cell growth ([3]; SK-N-MC (Brain)): −87%; % Cell growth ([3]; SK-OV-3 (Ovarian Cancer)): −35%; % Cell growth ([3]; SW-620 (Colon Cancer)): −89%; % Cell growth ([3]; T-47D (Breast Cancer)): 20%; % Cell growth ([3]; U937 (Lymphoma)): −86%; % Cell growth ([3]; U-87 MG (Brain)): 7%; inhibition at 10 µM [4]: 5%; % Inhibition of Control Values ([5]; 10 μM): significant inhibitory activity; inhibition at 10 µM ([5]; 10 μM, read-out: % Inhibition of Control Values): 65%; IC50 ([5]; Table 11, inhibition/concentration-response curve): 4.7 µM; inhibition at 10 µM [6]: 1%; inhibition at 10 µM [7]: -1%
